A short description of this series: HPLC analysis of test article vials and patch controls in air (mini-pig study). The format is physicochemical. As to the method:
Squaric acid dibutyl ester (SADBE) at 2% (w/v) concentration in dimethylsulfoxide (DMSO) was added to a skin patch for dermal dosing of SADBE to test for a delayed-type hypersensitivity response or other skin irritation. In the laboratories of Squarex HPLC analysis was conducted to analyze for SADBE content, for analysis of the dose formulation prepared by APS and to determine stability of the test article in the dermal patches during the application time and to test for residual SADBE in the dermal patches after 12 hours applied to the animals.
The skin patches consisted of a polymer backing layer similar to 3M 9916 polyester nonwoven backing layer with adhesive, 3M 9733 polyester film laminate barrier layer, and Precision Fabrics Group 0700-00010 polyester gauze layer. The gauze was heat sealed to the barrier layer. The gauze patch area was 1.53 cm^2.
The tubes of DMSO with patches were transported to the Squarex laboratory, shaken at 200 rpm for 30 minutes to overnight, and then the DMSO from each tube was placed in an injection vial and analyzed for SADBE content by HPLC on a C18 column with the program SADBE3-50 ul. SADBE elutes in this program at about 24.0 minutes and absorbs at 255 nm, so the area of the 24.0 min peak at 255 nm was used to quantify SADBE. The SADBE degradation product squaric acid monobutyl ester (SAMBE) was also quantified by 255 nm area under the curve at the elution time of 12.7 minutes.
The test article vials of 2%, 6%, and 18% SADBE dissolved in DMSO complied with specifications and had the predicted concentrations of SADBE at 24 hours after preparation.
The results indicated the SADBE was stable for more than 12 hours in the patches when not exposed to animal skin. There was no apparent loss of SADBE or conversion of SADBE to SAMBE.

[1] abbreviates: 2% patch control, 20 ul, >12 hours in air.
Setting [2] is: 2% vial, SADBE in DMSO, 24 hours after preparation.
[3] abbreviates: 6% patch control, 20 ul, >12 hours in air.
The mark [4] stands for this setting: 6% vial, SADBE in DMSO, 24 hours after preparation.
Where [5] appears, read: 18% vial, SADBE in DMSO, 24 hours after preparation.

Structures are written as SMILES.

As to `CCCCOc1c(OCCCC)c(=O)c1=O` [SADBE, squaric acid dibutyl ester], the “% of expected SADBE” value is on record as 97.7% under setting [1]; 100.8% under setting [2]; 96.8% under setting [3]; 97.5% under setting [4]; 104.4% under setting [5]. In addition, the “SAMBE as percent of SADBE” value by setting is: under setting [1], 0.86%; under setting [2], 0.88%; under setting [3], 0.96%; under setting [4], 0.96%; under setting [5], 1.00%. Also, the “time SADBE was stable in the patches” value (patches not exposed to animal skin, no apparent loss or conversion to SAMBE) is given as “more than 12 hours”.

The values above are taken from patent publication US20210393932A1, “DERMAL PATCHES AND GLASS SWABS FOR APPLICATION OF TOPICAL IMMUNOSENSITIZERS” (Squarex, LLC, priority 2020, published 2021).
